For the assay, the system named is Arabidopsis seedlings. Nature of the assay: Hormone-independent shoot regeneration of Arabidopsis seedlings after chemical induction of the transformed constructs. It is filed as in vivo, Arabidopsis thaliana. How it is done: For plant transformation, vector SHOOT REGENERATION was introduced into A. tumefaciens (strain C58C1.pMP90) by electroporation. Transformant A. tumefaciens were used to transform A. thaliana plants of the Col-0 ecotype by the floral dip method (Clough, 1998).
Seeds were surface sterilised by chlorin gas by the vapor sterilisation method (Lindsey, 2017). After sterilisation, the seeds were suspended in a 0.1% agarose solution, before being stratified at 4° C. in darkness for 48 hours. Subsequently, the seeds were plated on germination medium under sterile conditions. The seeds were plated on a fine nylon mesh (100 μm), which allowed for the contact with the medium without allowing seedlings to penetrate the mesh. The plates with the seedlings were sealed with surgical tape (3M, Micropore) to prevent desiccation. The plates were placed in upright position in a growth chamber (22° C., 120-150 μmol/m^2s with 16 h light/8 h dark photoperiodlight). The plates were left to grow in these circumstances for 5 days.
After 5 days of growth, the seedlings were transplanted under sterile conditions by transporting the mesh on which they were growing from the germination medium to the induction medium. The plates with the seedlings were sealed with surgical tape (3M, Micropore) to prevent desiccation. The plates were placed back in the growth chamber in upright position. The plates were left to grow in this condition for 14 days. Shoots started appearing in the second week of induction.
Plants transformed with the SHOOT REGENERATION vector (XVE-transactivated AmiRBR and AtWIND1; GVG-transactivated AtSHR, AtSCR, AtPLT1, AtPLT4, AtPLT5 and AtWOX5) were grown on medium containing 10 μM 17β-estradiol (EST: activation of XVE) and/or 10 μM dexamethasone (DEX: activation of GVG).
Plants transformed with the SHOOT REGENERATION-2 vector (XVE-transactivated AtWIND1; GVG-transactivated AtPLT1 and AtWOX5) were grown on medium containing 10 μM 17β-estradiol (EST: activation of XVE) and/or 10 μM dexamethasone (DEX: activation of GVG).

Where [1] appears, read: inducer on wild-type (non-transformed) seedlings, percentage of total number of seedlings tested.

Molecules are shown by their SMILES.

Regarding `C[C@@H]1C[C@H]2[C@@H]3CCC4=CC(=O)C=C[C@]4(C)[C@@]3(F)[C@@H](O)C[C@]2(C)[C@@]1(O)C(=O)CO` [DEX, dexamethasone], the green callus (inducer on wild-type (non-transformed) seedlings, percentage of the numbers with callus formation) worked out at 0%. The same molecule came in with a shoot regeneration (inducer on wild-type (non-transformed) seedlings, percentage of the numbers with green callus formation) of 0%. Under setting [1], this molecule registered a callus of 0%, a green callus of 0%, a root growth arrest of 0% and a shoot regeneration of 0%.
As to `C[C@]12CC[C@@H]3c4ccc(O)cc4CC[C@H]3[C@@H]1CC[C@@H]2O` [estradiol, 17β-estradiol], for the setting “roots of non-transformed Arabidopsis, induced with 10 μM, result in words”, the “root growth arrest, callus formation or shoot regeneration” value is reported as “never showed any root growth arrest, callus formation or shoot regeneration”.
